Experimental data: patent US20110287934A1, “HERBICIDAL COMPOSITION FOR TOLERANT OR RESISTANT RICE CROPS” (priority 2010, published 2011)

Assays:
Format in all cases: in vivo
[1] = tested on: Amaranthus retroflexus; assay: Greenhouse trial, efficacy with respect to Amaranthus retroflexus; conditions: post-emergence, 2-3-leaf stage, scoring 13 days after treatment
Procedure: (§1) The trials were carried out under greenhouse conditions (test pots, diameter 8 cm, spray application using 300 l of water/hectare, 2 repetitions, 6 to 8 plants per pot, permanently flooded).
(§2) Application was by post-emergence treatment, the species of the harmful plants and their stage of growth at the time of treatment are indicated in the individual results tables. The application rates of the herbicidally active compounds used on their own or in combinations are likewise listed in the individual results tables.
(§3) Scoring was by visual comparison of the treated with the untreated controls (0-100% scale, 13-15 days after the application) (see details in the respective tables).
(§4) 4.2 Abbreviations Used in Tables 4 to 6 • application rate g/ai=application rate in grams of active compound per hectare • ai=active ingredient (of an active compound content of 100%) • GA=glufosinate-ammonium • GA-tolerant=rice which is tolerant to GA (GMO: LL-rice) • E^C=expected value according to Colby, (E^C=A+B−A×B/100) • =for ternary combinations: (A+B)+C−(A+B)×C/100 • E^A=expected value according to the addition method (E^A=A+B) • Δ=difference (%) between observed value—%—vs. expected value (%) (observed value minus expected value) examination: observed values for (A), (B) and (A)+(B) in scoring: observed value (%) greater >than E^C/E^A:->synergism (+Δ) • observed value (%) equal to =E^C/E^A->additive effect (+−0Δ) • observed value (%) smaller <than E^A/E^C->antagonism (−Δ)

[2] = tested on: Leptochloa chinensis; assay: Greenhouse trial, efficacy with respect to Leptochloa chinensis; conditions: post-emergence
Procedure: as §1, §2, §3, §4

[3] = tested on: rice (GA-tolerant); assay: Greenhouse trial, crop plant compatibility in rice (GA-tolerant)
Procedure: as §1, §3

[4] = tested on: Cyperus esculentus; assay: Greenhouse trial, efficacy with respect to Cyperus esculentus; conditions: post-emergence, 1-3-leaf stage, scoring 15 days after application
Procedure: as §1, §2, §3, §4

[5] = Dinebra chinensis, 360 h, read-out: Herbicidal activity % Leptochloa chinensis
[6] = 100 g of ai/ha, post-emergence, 1-3-leaf stage, scoring 15 days after application (Table 5)
[7] = 50 g of ai/ha, post-emergence, 1-3-leaf stage, scoring 15 days after application (Table 5)

With `CP(=O)(O)CCC(N)C(=O)O` (centres unmarked) [A1.1, glufosinate-ammonium] the “Herbicidal efficacy % Amaranthus retroflexus” value ([1]; 100 g of ai/ha) was 55%, the inhibition at 100 g/ha [2, 5] was 10% and the “Damage to crop plants (%) rice (GA-tolerant) (≦15-20% acceptable)” value (shortened to “Damage to crop plants (%) rice”) [3, 6] was 10%. For the same molecule, the “Damage to crop plants (%) rice” value ([3]; 100 g of ai/ha, post-emergence, 1-3-leaf stage, scoring 15 days after application (Table 6)) was 10%, the “Damage to crop plants (%) rice” value ([3]; 100 g of ai/ha, post-emergence, 2-3-leaf stage, scoring 13 days after treatment) was 10% and the “Herbicidal efficacy % Cyperus esculentus” value ([4]; 100 g of ai/ha) was 25%.

In the case of `COC(=O)c1nc(-c2ccc(Cl)c(OC)c2F)cc(N)c1Cl` [B1.1, methyl 4-amino-3-chloro-6-(4-chloro-2-fluoro-3-methoxyphenyl)pyridine-2-carboxylate], the “Herbicidal efficacy % Amaranthus retroflexus” value ([1]; 20 g of ai/ha) is reported as 90%, the inhibition at 20 g/ha [2, 5] is reported as 45% and the “Damage to crop plants (%) rice” value ([3]; in vivo) is reported as 0%. The “Herbicidal efficacy % Cyperus esculentus” value ([4]; 20 g of ai/ha) was 60%.

`Cc1nn(-c2cc(CC(Cl)C(=O)O)c(Cl)cc2F)c(=O)n1C(F)F` (centres unmarked) [C13, carfentrazone] was tested, and the “Damage to crop plants (%) rice” value ([3]; 4 g of ai/ha, post-emergence, 1-3-leaf stage, scoring 15 days after application (Table 5)) was 10% and the “Herbicidal efficacy % Cyperus esculentus” value ([4]; 4 g of ai/ha) was 0%.

In the case of `CC1(C)CON(Cc2ccccc2Cl)C1=O` [C17, clomazone], the “Damage to crop plants (%) rice” value [3, 6] is reported as 0% and the “Herbicidal efficacy % Cyperus esculentus” value ([4]; 100 g of ai/ha) is reported as 10%.

For `C[C@@H](Oc1ccc(Oc2ccc(C#N)cc2F)cc1)C(=O)O` [C19, cyhalofop], the “Damage to crop plants (%) rice” value [3, 7] was 0% and the “Herbicidal efficacy % Cyperus esculentus” value ([4]; 50 g of ai/ha) was 10%.

In the case of `O=C(O)COc1ccc(Cl)cc1Cl` [C20, 2,4-D], the “Damage to crop plants (%) rice” value [3, 6] is reported as 0% and the “Herbicidal efficacy % Cyperus esculentus” value ([4]; 100 g of ai/ha) is reported as 20%.

With `CCOc1ccccc1OS(=O)(=O)NC(=O)Nc1nc(OC)cc(OC)n1` [C24, ethoxysulfuron] the “Herbicidal efficacy % Amaranthus retroflexus” value ([1]; 10 g of ai/ha) was 40% and the “Damage to crop plants (%) rice” value ([3]; in vivo) was 0%.

With `CCOC(=O)[C@@H](C)Oc1ccc(Oc2nc3ccc(Cl)cc3o2)cc1` [C29, fenoxaprop-P-ethyl] the “Herbicidal efficacy % Amaranthus retroflexus” value ([1]; 10 g of ai/ha) was 10% and the “Damage to crop plants (%) rice” value ([3]; 10 g of ai/ha, post-emergence, 2-3-leaf stage, scoring 13 days after treatment) was 10%.

For `CCN(C(=O)n1nnn(-c2ccccc2Cl)c1=O)C1CCCCC1` [C30, fentrazamide], the “Herbicidal efficacy % Amaranthus retroflexus” value ([1]; 75 g of ai/ha) was 30%.

In the case of `COC(=O)c1ccccc1S(=O)(=O)NC(=O)Nc1nc(C)nc(OC)n1` [C43, metsulfuron-methyl], the “Damage to crop plants (%) rice” value ([3]; in vivo) is reported as 15% and the “Herbicidal efficacy % Cyperus esculentus” value ([4]; 3 g of ai/ha) is reported as 0%.

For `CC(C)Oc1cc(-n2nc(C(C)(C)C)oc2=O)c(Cl)cc1Cl` [C50, oxadiazon], the “Damage to crop plants (%) rice” value ([3]; in vivo) was 0% and the “Herbicidal efficacy % Cyperus esculentus” value ([4]; 3 g of ai/ha) was 10%.

For `CCC(CC)Nc1c([N+](=O)[O-])cc(C)c(C)c1[N+](=O)[O-]` [C53, pendimethalin], the “Herbicidal efficacy % Amaranthus retroflexus” value ([1]; 200 g of ai/ha) was 50% and the “Damage to crop plants (%) rice” value ([3]; 200 g of ai/ha, post-emergence, 2-3-leaf stage, scoring 13 days after treatment) was 10%.

With `CCC(=O)Nc1ccc(Cl)c(Cl)c1` [C55, propanil] the “Damage to crop plants (%) rice” value ([3]; 500 g of ai/ha, post-emergence, 1-3-leaf stage, scoring 15 days after application (Table 5)) was 0% and the “Herbicidal efficacy % Cyperus esculentus” value ([4]; 500 g of ai/ha) was 10%.

In the case of `CCOC(=O)c1cnn(C)c1S(=O)(=O)NC(=O)Nc1nc(OC)cc(OC)n1` [C59, pyrazosulfuron-ethyl], the “Herbicidal efficacy % Amaranthus retroflexus” value ([1]; 50 g of ai/ha) is reported as 60% and the “Damage to crop plants (%) rice” value ([3]; 50 g of ai/ha, post-emergence, 2-3-leaf stage, scoring 13 days after treatment) is reported as 10%.

In the case of `CS(=O)(=O)c1ccc(C(=O)C2C(=O)CCCC2=O)c(Cl)c1COCC1CCCO1` (centres unmarked) [C64, tefuryltrione], the “Damage to crop plants (%) rice” value [3, 7] is reported as 0% and the “Herbicidal efficacy % Cyperus esculentus” value ([4]; 50 g of ai/ha) is reported as 30%.

With `COc1nc(OC)nc(C(=O)c2cccc(F)c2N(C)S(=O)(=O)C(F)F)n1` [C72, AE 196 triafamone] the “Damage to crop plants (%) rice” value ([3]; 6 g of ai/ha, post-emergence, 1-3-leaf stage, scoring 15 days after application (Table 5)) was 0% and the “Herbicidal efficacy % Cyperus esculentus” value ([4]; 6 g of ai/ha) was 65%.

For oxadiargyl [C49], the “Herbicidal activity % Leptochloa chinensis” value ([2]; 25 g of ai/ha, 1-3-leaf stage, scoring 15 days after application) was 70%.
